Measurements as given in patent US8247211B2, “Glycopeptide antibiotics” (American Cyanamid Company, priority 2001, dated 2012).
In brackets after ≈: the same amount, converted by molar mass.

Legend:
Assay in all cases: In vitro antibacterial evaluation: minimum inhibitory concentration (MIC), broth dilution method
Type in all cases: cell-based
Escherichia coli [1] = system: Escherichia coli
Enterococcus sp. = system: Enterococcus sp.
How it was run: (§1)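 NCCLS M7-A2 broth dilution with Mueller-Hinton II, testing 64-0.06 μg/mL antibiotic against 5×10^5 CFU/mL inocula. Test strains include recent methicillin-, penicillin- or vancomycin-resistant clinical isolates. MIC is the lowest concentration preventing growth.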

Streptococcus sp. = settings: 18 hours at 35° C.
How it was run: as §1

Staphylococcus sp. = settings: 18 hours at 35° C.
How it was run: as §1

Escherichia coli [2] = system: Escherichia coli; remark: listed apart in the source
How it was run: as §1

## CC(C)CC(=O)OC1C(OC2C(CO)OC(Oc3ccc(CC4NC(=O)C(C(C)c5cccc(F)c5)NC(=O)CNC(=O)C(CO)NC(=O)C(C(O)C5CNC(=N)N5C5OC(CO)C(O)C(O)C5O)NC(=O)C(C(O)C5CNC(=N)N5)NC4=O)cc3)C(O)C2O)OC(CO)C(O)C1O (centres unmarked) [Example 264a]
Escherichia coli [1]
  MIC Escherichia coli (ATCC 25922): 64 µg/mL (≈ 45.8 µM)
Enterococcus sp.; Enterococcus avium (GC 4558)
  MIC Enterococcus avium (GC 4558): >64 µg/mL
Enterococcus sp.; Enterococcus faecalis (ATCC 29212)
  MIC Enterococcus faecalis (ATCC 29212): 64 µg/mL (≈ 45.8 µM)
Enterococcus sp.; Enterococcus faecalis (GC 2242), 18 hours at 35° C.
  MIC Enterococcus faecalis (GC 2242): 64 µg/mL (≈ 45.8 µM)
Enterococcus sp.; Enterococcus faecalis (GC 4552), 18 hours at 35° C.
  MIC Enterococcus faecalis (GC 4552): >64 µg/mL
Enterococcus sp.; Enterococcus faecalis (GC 4553)
  MIC Enterococcus faecalis (GC 4553): >64 µg/mL
Enterococcus sp.; Enterococcus faecalis (GC 4554)
  MIC Enterococcus faecalis (GC 4554): >64 µg/mL
Enterococcus sp.; Enterococcus faecium (GC 2243)
  MIC Enterococcus faecium (GC 2243): >64 µg/mL
Enterococcus sp.; Enterococcus faecium (GC 4556)
  MIC Enterococcus faecium (GC 4556): 64 µg/mL (≈ 45.8 µM)
Enterococcus sp.; Enterococcus faecium (GC 4557)
  MIC Enterococcus faecium (GC 4557): 32 µg/mL (≈ 22.9 µM)
Streptococcus sp.; Streptococcus agalactiae (GC 4564)
  MIC Streptococcus agalactiae (GC 4564): 8 µg/mL (≈ 5.72 µM)
Streptococcus sp.; Streptococcus pyogenes (ID-3187)
  MIC Streptococcus pyogenes (ID-3187): 4 µg/mL (≈ 2.86 µM)
Staphylococcus sp.
  MIC Coagulase Negative Staphylococcus (GC 4547): 8 µg/mL (≈ 5.72 µM)
  MIC Coagulase Negative Staphylococcus (GC 4548): 4 µg/mL (≈ 2.86 µM)
  MIC Coagulase Negative Staphylococcus (GC 4549): 4 µg/mL (≈ 2.86 µM)
  MIC Coagulase Negative Staphylococcus (GC 4551): 16 µg/mL (≈ 11.4 µM)
  MIC Staphylococcus aureus (ATCC 29213): 16 µg/mL (≈ 11.4 µM)
  MIC Staphylococcus aureus (GC 1131): 16 µg/mL (≈ 11.4 µM)
  MIC Staphylococcus aureus (GC 4541): 16 µg/mL (≈ 11.4 µM)
  MIC Staphylococcus aureus (GC 4542): 16 µg/mL (≈ 11.4 µM)
  MIC Staphylococcus aureus (GC 4544): 8 µg/mL (≈ 5.72 µM)
  MIC Staphylococcus aureus (GC 4545): 8 µg/mL (≈ 5.72 µM)
  MIC Staphylococcus aureus-SMITH (GC 4543): 8 µg/mL (≈ 5.72 µM)
  MIC Staphylococcus haemolyticus (GC 4546): 8 µg/mL (≈ 5.72 µM)
Staphylococcus sp.; broth dilution
  MIC Coagulase Negative Staphylococcus (GC 4547): 8 µg/mL (≈ 5.72 µM)
  MIC Coagulase Negative Staphylococcus (GC 4548): 4 µg/mL (≈ 2.86 µM)
  MIC Coagulase Negative Staphylococcus (GC 4549): 4 µg/mL (≈ 2.86 µM)
  MIC Coagulase Negative Staphylococcus (GC 4551): 16 µg/mL (≈ 11.4 µM)
  MIC Staphylococcus aureus (ATCC 29213): 16 µg/mL (≈ 11.4 µM)
  MIC Staphylococcus aureus (GC 1131): 16 µg/mL (≈ 11.4 µM)
  MIC Staphylococcus aureus (GC 4541): 16 µg/mL (≈ 11.4 µM)
  MIC Staphylococcus aureus (GC 4542): 16 µg/mL (≈ 11.4 µM)
  MIC Staphylococcus aureus (GC 4544): 8 µg/mL (≈ 5.72 µM)
  MIC Staphylococcus aureus (GC 4545): 8 µg/mL (≈ 5.72 µM)
  MIC Staphylococcus aureus-SMITH (GC 4543): 8 µg/mL (≈ 5.72 µM)
  MIC Staphylococcus haemolyticus (GC 4546): 8 µg/mL (≈ 5.72 µM)
Escherichia coli [2]; Escherichia coli (GC 4559)
  MIC Escherichia coli (GC 4559): >64 µg/mL
Escherichia coli [2]; Escherichia coli (GC 4560)
  MIC Escherichia coli (GC 4560): 4 µg/mL (≈ 2.86 µM)
